The values below come from patent publication US5807889A, “Aminomethylindans, -benzofuranes and -benzothiophenes” (H. Lundbeck A/S, priority 1992, dated 1998).

As usually defined, the IC50 is the point on the concentration scale where inhibition reaches its midpoint.

Where two headings read alike, the source gives them in different places.

This test addresses T1, 5-HT1A receptors (Rattus norvegicus, UniProt P19327).
T1 sequence (P19327 1-422): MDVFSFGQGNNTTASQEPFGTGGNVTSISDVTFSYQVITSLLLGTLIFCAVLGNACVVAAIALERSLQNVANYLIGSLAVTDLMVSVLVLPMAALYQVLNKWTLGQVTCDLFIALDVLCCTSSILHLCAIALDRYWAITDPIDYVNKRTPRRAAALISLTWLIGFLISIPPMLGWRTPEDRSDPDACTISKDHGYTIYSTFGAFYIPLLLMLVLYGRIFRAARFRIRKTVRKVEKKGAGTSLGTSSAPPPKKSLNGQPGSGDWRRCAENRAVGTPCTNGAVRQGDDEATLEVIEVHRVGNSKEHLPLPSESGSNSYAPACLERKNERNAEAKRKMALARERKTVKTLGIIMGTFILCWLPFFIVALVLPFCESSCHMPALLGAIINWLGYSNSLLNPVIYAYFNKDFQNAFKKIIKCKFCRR
Kind of test: Inhibition of 3H-8-OH-DPAT binding to serotonin 5-HT1A receptors in rat brain in vitro. Also noted: 5-HT1A receptors in membranes from rat brain minus cerebellum; from tissue; host or cells: brain minus cerebellum of male Wistar (Mol:Wist) rats, crude membranes; species or system rat (male Wistar). The conditions noted are these: rat brain minus cerebellum membranes, 37° C., 15 min.

The mark [1] stands for this setting: read-out: 3H 8-OH DPAT binding IC50, 1 nM 3H-8-OH-DPAT.
Setting [2] is: 3H 8-OH DPAT binding IC50, 1 nM 3H-8-OH-DPAT.

Method: Male Wistar (Mol:Wist) rats (125-250 g) are sacrificed and the brain is dissected and weighed. The brain tissue minus cerebellum is homogenized (Ultra Turrax, 20 sec) in 10 ml of ice cold 50 nM Tris buffer pH 8.0 (at 25° C.) containing 120 mM NaCl, 4 mM CaCl2 and 4 mM MgCl2. The homogenate is centrifuged at 20,000 g for 10 min at 4° C. The pellet is homogenized in 10 ml of buffer and incubated at 37° C. for 10 min. The homogenate is centrifuged as above and the pellet is homogenized in 100 vol (w/v) ice cold buffer containing 10 μM of pargyline.
Incubation tubes kept on ice in triplicate receive 100 μl of drug solution in water (or water for total binding) and 1000 μl of tissue suspension (final tissue content corresponds to 10 mg original tissue). […] After incubation for 15 min the samples are filtered under vacuum (0-50 mBar) through Whatman GF/F filters (25 mm). The tubes are rinsed with 5 ml ice cold 0.9% NaCl which is then poured on the filters. Thereafter, the filters are washed with 2×5 ml 0.9% NaCl. The filters are placed in counting vials and 4 ml of appropriate scintillation fluid (e.g. Picofluor™ 15) are added. After shaking for 1 h and storage 2 h in the dark the content of radioactivity is determined by liquid scintillation counting. Specific binding is obtained by subtracting the nonspecific binding in the presence of 10 μM of 5-HT.
For determination of the inhibition of binding five concentrations of drugs covering 3 decades are used.
The IC50 -value is determined as the concentration, at which the binding is 50% of the total binding in control samples minus the nonspecific binding in the presence of 10 μM of 5-HT.

Consider “3-[N-(2-phenylethyl)-N-propylaminomethyl]-5-formylaminomethyl-2,3-dihydrobenzothiophene [Compound 5b]”, for which, under setting [1], the IC50 amounted to 60 nM.

For `CCCN(CCC)CC1CCc2ccc(NC(C)=O)cc21` (single isomer, unassigned; (+)) [Compound 8b, (+)-6-Acetylamino-1-(N,N-dipropylaminomethyl)indan], the IC50 under setting [1] was found to be 0.64 nM.

Turning to `CC(=O)Nc1ccc2c(c1)C(CN1CCCCC1)CC2` (single isomer, unassigned; (+)) [Compound 8f, (+)-6-acetylamino-1-(1-piperidinomethyl)indan], under setting [2], the IC50 came out at 15 nM.

Consider `CCCN(CCC)CC1CCc2ccc(NC=O)cc21` (single isomer, unassigned; (+)) [Compound 10b, (+)-1-(N,N-dipropylaminomethyl)-6-formylaminoindan], for which the IC50 under setting [2] was found to be 4.2 nM.

Regarding `CCCN(CCC)CC1CCc2ccc(NC(=O)N(C)C)cc21` (single isomer, unassigned; (+)) [Compound 10d, (+)-6-(3,3-dimethyl-1-ureido)-1-(N,N-dipropylaminomethyl)indan], under setting [2], the IC50 was 22 nM.

Consider `CCCN(CCC)CC1CCc2ccc(NC(=O)Nc3ccc(F)cc3)cc21` (single isomer, unassigned; (+)) [Compound 10f, (+)-6-[3-(4-fluorophenyl)-1-ureido]-1-(N,N-dipropylaminomethyl)indan], for which the IC50 under setting [2] was 63 nM.

Compound `CN(C)CC1CCc2ccc(NC=O)cc21` (single isomer, unassigned; (+)) [Compound 10h, (+)-1-(N,N-dimethylaminomethyl)-6-formylaminoindan] yielded an IC50 under setting [2] of 220 nM.

With `CCCN(CCC)CC1CCc2cc(Cl)c(NC(C)=O)cc21` (single isomer, unassigned; (+)) [Compound 11c, (+)-6-Acetylamino-5-chloro-1-(N,N-dipropylaminomethyl)indan], the IC50 under setting [2] turned out to be 14 nM.

Consider `CCCN(CCC)CC1CCc2ccc(NC(C)=O)cc21` (single isomer, unassigned; (-)) [Compound 8a, (-)-6-Acetylamino-1-(N,N-dipropylaminomethyl)indan], for which, under setting [2], the IC50 worked out at 0.64 nM.

In turn, `CC(=O)Nc1ccc2c(c1)C(CN1CCCCC1)CC2` (single isomer, unassigned; (-)) [Compound 8e, (-)-6-acetylamino-1-(1-piperidinomethyl)indan] yielded an IC50 under setting [2] of 6.7 nM.

As to `CCCN(CCC)CC1CCc2ccc(NC=O)cc21` (single isomer, unassigned; (-)) [Compound 10a, (-)-1-(N,N-dipropylaminomethyl)-6-formylaminoindan], the IC50 under setting [2] stood at 1 nM.

`CCCN(CCC)CC1CCc2ccc(NC(=O)N(C)C)cc21` (single isomer, unassigned; (-)) [Compound 10c, (-)-6-(3,3-dimethyl-1-ureido)-1-(N, N-dipropylaminomethyl)indan] displayed an IC50 under setting [2] of 8.1 nM.

`CCCN(CCC)CC1CCc2ccc(NC(=O)Nc3ccc(F)cc3)cc21` (single isomer, unassigned; (-)) [Compound 10e, (-)-6-[3-(4-fluorophenyl)-1-ureido]-1-(N,N-dipropylaminomethyl)indan] returned an IC50 under setting [2] of 160 nM.

Under setting [2], `CN(C)CC1CCc2ccc(NC=O)cc21` (single isomer, unassigned; (-)) [Compound 10g, (-)-1-(N,N-dimethylaminomethyl)-6-formylaminoindan] registered an IC50 of 48 nM.

Under setting [2], `O=CNc1ccc2c(c1)C(CN1CCCC1)CC2` (centres unmarked) [Compound 1d, 6-Formylamino-1-(1-pyrrolidinomethyl)indan] gave an IC50 of 19 nM.

Under setting [2], `CCCN(CCC)CC1CCc2ccc(NC(C)=O)c(Cl)c21` (centres unmarked) [Compound 2f, 6-Acetylamino-7-chloro-1-(N,N-dipropylaminomethyl)indan] registered an IC50 of 340 nM.

Turning to `CCCN(CCC)CC1CCc2ccc(NS(C)(=O)=O)c(Cl)c21` (centres unmarked) [Compound 2h, 7-chloro-1-(N,N-dipropylaminomethyl)-6-(methylsulphonylamino)indan], under setting [2], the IC50 came to 2000 nM.

`CC(=O)Nc1ccc2c(c1)C(CN1CCCCC1)CS2` (centres unmarked) [Compound 2i, 5-acetylamino-3-(1-piperidinomethyl)-2,3-dihydrobenzothiophene] came in with an IC50 under setting [2] of 6.3 nM.

Consider `CCCN(CCC)CC1CCc2ccc(NC(N)=O)cc21` (centres unmarked) [Compound 3a, 1-(N,N-dipropylaminomethyl)-6-ureido-indan], for which the IC50 under setting [2] worked out at 0.56 nM.

On to `CCCN(CCC)CC1CCc2ccc(NC(=O)Nc3ccccc3)cc21` (centres unmarked) [Compound 4a, 1-(N,N-dipropylaminomethyl)-6-(3-phenyl-1-ureido)indan], for which the IC50 under setting [2] was 80 nM.

As for `CCCN(CCC)CC1CCc2ccc(NC(=O)NC)cc21` (centres unmarked) [Compound 4b, 1-(N,N-dipropylaminomethyl)-6-(3-methyl-1-ureido)indan], under setting [2], the IC50 worked out at 6.6 nM.

Regarding `CCCCCCCCCNC(=O)Nc1ccc2c(c1)C(CN(CCC)CCC)CC2` (centres unmarked) [Compound 4d, 1-(N,N-dipropylaminomethyl)-6-(3-nonyl-1-ureido)indan], the IC50 under setting [2] turned out to be 170 nM.

Turning to `CCCN(CCC)CC1CCc2ccc(NC(=O)NC3CCCC3)cc21` (centres unmarked) [Compound 4e, 6-(3-cyclopentyl-1-ureido)-1-(N,N-dipropylaminomethyl)indan], under setting [2], the IC50 was determined as 170 nM.

As for `CC(=O)Nc1ccc2c(c1)C(CN1CCCCC1)CC2` (centres unmarked) [Compound 5c, 6-acetylamino-1-(1-piperidinomethyl)indan], the IC50 under setting [2] was found to be 6.5 nM.

Under setting [2], `CCCN(CCC)CC1CCc2ccc(NCc3ccc(F)cc3)cc21` (centres unmarked) [Compound 6a, 1-(N,N-dipropylaminomethyl)-6-(4-fluorobenzylamino)indan] registered an IC50 of 20 nM.

Under setting [2], `CCCN(CCC)CC1CCc2cc(Br)c(NC(C)=O)cc21` (centres unmarked) [Compound 11d, 6-Acetylamino-5-bromo-1-(N,N-dipropylaminomethyl)indan] registered an IC50 of 120 nM.

For the compound `CNCC1CCc2ccc(NC(C)=O)cc21` (centres unmarked) [Compound 12a, 6-Acetylamino-1-(N-methylaminomethyl)indan], the IC50 under setting [2] was 25 nM.

Compound `CC(=O)Nc1ccc2c(c1)C(CN(C)CCN1CCN(c3ccc(F)cc3)C1=O)CC2` (centres unmarked) [Compound 13e, 6-Acetylamino-1-[N-[2-[3-(4-fluorophenyl)-2-imidazolidinon-1-yl]ethyl]-N-methyl-aminomethyl]indan] displayed an IC50 under setting [2] of 27 nM.

In turn, `CC(=O)Nc1ccc2c(c1)C(CN(C)CCCCN1CCN(C3CCCCC3)C1=O)CC2` (centres unmarked) [Compound 13f, 6-Acetylamino-1-[N-[4-(3-cyclohexyl-2-imidazolidinon-1-yl)-1-butyl]-N-methylaminomethyl]indan] had an IC50 under setting [2] of 5.1 nM.

In turn, `CC(=O)Nc1ccc2c(c1)C(CN(C)CCCN1CCN(c3ccccc3)C1=O)CC2` (centres unmarked) [Compound 13g, 6-Acetylamino-1-[N-methyl-N-[3-(3-phenyl-2-imidazolidinon-1-yl)-1-propyl]aminomethyl]indan] registered an IC50 under setting [2] of 1 nM.

`CC(=O)Nc1ccc2c(c1)C(CN(C)CCCCN1CCN(c3ccc(F)cc3)C1=O)CC2` (centres unmarked) [Compound 13h, 6-Acetylamino-1-[N-[4-[3-(4-fluorophenyl)-2-imidazolidinon-1-yl]-1-butyl]-N-methylaminomethyl]indan]: the IC50 under setting [2] was found to be 4.8 nM.

For the compound `CC(=O)Nc1ccc2c(c1)C(CN(C)CCCN1CCN(C3CCCCC3)C1=O)CC2` (centres unmarked) [Compound 13i, 6-Acetylamino-1-[N-[3-(3-cyclohexyl-2-imidazolidinon-1-yl)-1-propyl]-N-methylaminomethyl]indan], under setting [2], the IC50 worked out at 2.2 nM.
